What was measured:
[1] = Kamlet-Abboud-Taft solvatochromic parameters (dye absorption spectra); format: physicochemical; conditions: for Kamlet-Taft Parameters Π* / Kamlet-Taft Parameters α / Kamlet-Taft Parameters β: Table 1a; for Kamlet-Abboud-Taft α / Kamlet-Abboud-Taft β / Kamlet-Abboud-Taft π: Table 1c; for Kamlet-Taft Π* / Kamlet-Taft α / Kamlet-Taft β: Table 4
Excerpt: Determination of the Kamlet-Abboud-Taft parameters was based on the absorption spectrum of two dyes (N,N-diethyl-4-nitroaniline and 4-nitroaniline) in different solvents, that allow calculating corresponding values using known procedures (P. G. Jessop, D. A. Jessop, D. Fu and L. Phan, Green Chem., 2012, 14, 1245-1259).

[2] = Maximum absorbance of Nile Red dye in the solvent; format: physicochemical
Procedure: The absorbance spectra of 4-nitroaniline dye (cf. FIG. 10a), N,N-diethyl-4-nitroaniline dye (cf. FIG. 10b) as well as of Nile Red dye (cf. FIG. 10c) in the compounds 1, 3, 4 and 24 of claim 13 as well as in DMSO were measured. Nile Red absorbance is dependent on polarity and acidity, but as acidity is 0 in the case of aprotic solvents, the value is only polarity dependent. This differs from π*, which is both polarity and polarizability dependent. The maximum absorbance of Nile Red in 1, 3, 4 and 24 was measured to be 543, 536, 534.5 and 535 nm respectively. […] Values for 3, 4 and 24 are similar to conventional medium polarity aprotic solvents such as dichloromethane (535.2 nm) and acetonitrile (531.6 nm).
The Nile red value for DEX:PG is 553 nm, indicating similar chemical behavior to Methanol (550 nm) and Ethanolamine (557 nm).

Flash point = format: physicochemical
[3] = Stability of DFX under basic conditions (GC-FID/GC-MS, colour change); format: physicochemical; conditions: Pyridine and KOAc
Procedure: To assess DFX stability under basic conditions, we tested a series of organic and inorganic bases at 80° C. and 110° C. for maximum 48 h (Table 6). Visual color change compared to a blank solution of pure DFX indicated some reactions were occurring. After 0.5 h, 24 h, 48 h of exposure, the samples were injected in GC-FID and GC-MS and the area of DFX was compared with the one in blank sample using decane as the internal standard. As a result of this experiment, we identified some potential limitations of this emerging solvent. Specifically, inorganic bases such as K2CO3, NaOH, CsCO3 led to the highest extent of degradation (maximum 21% after 48 h). Triethylamine (NEt3) caused less than 5% of degradation, but led to the formation of dark solution as well as K2CO3, NaOH, CsCO3. Probably, impurities existing in DFX (95% pure) also contribute to a color change as they could interact with bases.

[4] = Miscibility with different solvents; format: physicochemical; design: key: “*” indicating—not miscible; conditions: Table 1d; blank cell = miscible
[5] = Stability under acidic conditions; format: physicochemical

With `C1COCCO1` [1,4-dioxane] the “Kamlet-Taft Parameters Π*” value [1] was 0.55, the “Kamlet-Taft Parameters α” value [1] was 0.00 and the “Kamlet-Taft Parameters β” value [1] was 0.37. For the same compound, the “Kamlet-Abboud-Taft α” value [1] was 0, the “Kamlet-Abboud-Taft β” value [1] was 0.37 and the “Kamlet-Abboud-Taft π” value [1] was 0.55.

In the case of `CC(C)=O` [Acetone, acetone], the “Kamlet-Taft Π*” value [1] is reported as 0.71, the “Kamlet-Taft α” value [1] is reported as 0.08 and the “Kamlet-Taft β” value [1] is reported as 0.48.

For `CC#N` [Acetonitrile, acetonitrile], the “maximum absorbance of Nile Red” value [2] was 531.6 nm, the “Kamlet-Taft Π*” value [1] was 0.8 and the “Kamlet-Taft α” value [1] was 0.35. The “Kamlet-Taft β” value [1] was 0.37.

`COC1CCCC1` [CPME, cyclopentyl methyl ether] gave a Flash point (Flash point) of −1 °C.

With `C1OC[C@H]2O[C@@H]3OCO[C@@H]3[C@H]2O1` [Compound 1, Diformylxylose] the “effect on stability” value [3] was “didn't show any significant effect” and the melting point was 48 °C.

`CC1CCCO1` (centres unmarked) [Compound 2-Me-THF] showed a Flash point (Flash point) of −10 °C.

With `CC1CCCO1` (centres unmarked) [Compound 2-MeTHF, 2-methyltetrahydrofuran] the “Kamlet-Abboud-Taft α” value [1] was 0, the “Kamlet-Abboud-Taft β” value [1] was 0.58 and the “Kamlet-Abboud-Taft π” value [1] was 0.53.

With `CC1OC[C@H]2O[C@@H]3OC(C)O[C@@H]3[C@H]2O1` (some centres unmarked) [Compound 2] the melting point was 60 °C.

With `CCC1OC[C@H]2O[C@@H]3OC(CC)O[C@@H]3[C@H]2O1` (some centres unmarked) [Compound 3] the “maximum absorbance of Nile Red” value [2] was 536 nm, the melting point was 34 °C and the “Kamlet-Abboud-Taft α” value [1] was 0. For the same compound, the “Kamlet-Abboud-Taft β” value [1] was 0.63 and the “Kamlet-Abboud-Taft π” value [1] was 0.68.

In the case of `CC(C)C1OC[C@H]2O[C@@H]3OC(C(C)C)O[C@@H]3[C@H]2O1` (some centres unmarked) [Compound 4], the “maximum absorbance of Nile Red” value [2] is reported as 534.5 nm, the melting point is reported as 31 °C and the “Kamlet-Abboud-Taft α” value [1] is reported as 0. For the same compound, the “Kamlet-Abboud-Taft β” value [1] was 0.51 and the “Kamlet-Abboud-Taft π” value [1] was 0.63.

Work on `CC(C)(C)C1OC[C@H]2O[C@@H]3OC(C(C)(C)C)O[C@@H]3[C@H]2O1` (some centres unmarked) [Compound 5] yielded a melting point of 120 °C.

Work on `CC1(C)OC[C@H]2O[C@@H]3OC(C)(C)O[C@@H]3[C@H]2O1` [Compound 11] yielded a melting point of 43 °C.

`COC(=O)C1OC[C@H]2O[C@@H]3OC(C(=O)OC)O[C@@H]3[C@H]2O1` (some centres unmarked) [Compound 14] showed a melting point of 83 °C.

In the case of `CCCC1OC[C@H]2O[C@@H]3OC(CCC)O[C@@H]3[C@H]2O1` (some centres unmarked) [Compound 24], the “Miscibility with Water” value [4] is reported as “*”, the “maximum absorbance of Nile Red” value [2] is reported as 535 nm and the melting point is reported as 24.5 °C. The “Kamlet-Abboud-Taft α” value [1] was 0, the “Kamlet-Abboud-Taft β” value [1] was 0.56 and the “Kamlet-Abboud-Taft π” value [1] was 0.65.

With `C1CCCCC1` [Cyclohexane, cyclohexane] the “Kamlet-Abboud-Taft α” value [1] was 0, the “Kamlet-Abboud-Taft β” value [1] was 0 and the “Kamlet-Abboud-Taft π” value [1] was 0.

In the case of `O=C1CC[C@H]2CO[C@@H]1O2` [Cyrene], the “stability under acidic conditions” value ([5]; 95° C. or 70° C., 0.8M HCl, 15 min) is reported as “extensive degradation”, the Flash point (Flash point) is reported as 108 °C and the “Kamlet-Taft Parameters Π*” value [1] is reported as 0.93. For the same compound, the “Kamlet-Taft Parameters α” value [1] was 0.00 and the “Kamlet-Taft Parameters β” value [1] was 0.61.

For `CCCC1OCC2OC3OC(CCC)OC3C2O1` (centres unmarked) [DBX, Dibutylxylose], the “sensitivity to strong acids (visual, orange-colored solution)” value (shortened to “sensitivity to strong acids”) [5] was “showed sensitivity to strong acids”.

With `CC(C)C1OCC2OC3OC(C(C)C)OC3C2O1` (centres unmarked) [DIBX, Diisobutylxylose] the “sensitivity to strong acids” value [5] was “showed sensitivity to strong acids”.

With `CN(C)C=O` [DMF, N,N-dimethylformamide] the “maximum absorbance of Nile Red” value [2] was 541 nm.

With `C[S+](C)[O-]` [DMSO, dimethyl sulfoxide] the “Kamlet-Taft Parameters Π*” value [1] was 1.00, the “Kamlet-Taft Parameters α” value [1] was 0.00 and the “Kamlet-Taft Parameters β” value [1] was 0.74.

In the case of `CC(C)(C)C1OCC2OC3OC(C(C)(C)C)OC3C2O1` (centres unmarked) [DNPX, Dineopentylxylose], the “sensitivity to strong acids” value [5] is reported as “showed sensitivity to strong acids”.

In the case of `CCC1OCC2OC3OC(CC)OC3C2O1` (centres unmarked) [DPX, Dipropylxylose], the “sensitivity to strong acids” value [5] is reported as “showed sensitivity to strong acids”.

In the case of `NCCO` [Ethanolamine], the “maximum absorbance of Nile Red” value [2] is reported as 557 nm.

With `O=C1OCCO1` [Ethylene carbonate] the “Kamlet-Taft Parameters Π*” value [1] was 0.99, the “Kamlet-Taft Parameters α” value [1] was 0.00 and the “Kamlet-Taft Parameters β” value [1] was 0.32.

For `CC1CCC(=O)O1` (centres unmarked) [GVL, -valerolactone], the Flash point (Flash point) was 96.1 °C, the “Kamlet-Taft Parameters Π*” value [1] was 0.83 and the “Kamlet-Taft Parameters α” value [1] was 0.00. The “Kamlet-Taft Parameters β” value [1] was 0.60.

`COC(C)(C)C` [MTBE] showed a Flash point (Flash point) of −28 °C.

In the case of `CO` [Methanol, methanol], the “maximum absorbance of Nile Red” value [2] is reported as 550 nm.

For `CCCCN1CCCC1=O` [N-butylpyrrolidinone], the “Kamlet-Taft Parameters Π*” value [1] was 0.77, the “Kamlet-Taft Parameters α” value [1] was 0.00 and the “Kamlet-Taft Parameters β” value [1] was 0.92.

In the case of `O=S1(=O)CCCC1` [Sulfolane], the “maximum absorbance of Nile Red” value [2] is reported as 545 nm, the “Kamlet-Taft Parameters Π*” value [1] is reported as 0.98 and the “Kamlet-Taft Parameters α” value [1] is reported as 0.00. For the same compound, the “Kamlet-Taft Parameters β” value [1] was 0.39.

In the case of `C1CCOC1` [THF, Tetrahydrofuran], the “Kamlet-Abboud-Taft α” value [1] is reported as 0, the “Kamlet-Abboud-Taft β” value [1] is reported as 0.55 and the “Kamlet-Abboud-Taft π” value [1] is reported as 0.58.

In the case of `ClCCl` [dichloromethane], the “maximum absorbance of Nile Red” value [2] is reported as 535.2 nm.

— patent publication US20240228507A1, “GREEN SOLVENTS FOR CHEMICAL REACTIONS” (ECOLE POLYTECHNIQUE FÉDÉRALE DE LAUSANNE (EPFL), priority 2021, published 2024)
